Among the data in patent publication US11884670B1, “Pyrido[4′,3′:4,5]pyrrolo[3,2-c][2,7]naphthyridin-10-one compounds as CK2 inhibitors” (KING FAISAL UNIVERSITY, priority 2023, dated 2024) are IC50 values, retold here.

Experiment [1] concerns PC3 (prostate). Description: In vitro cytotoxic activity (MTT) assay, PC3. The class given is cell-based. The settings on record: Homo sapiens, Prostate cell; PC3 (prostate) cells, exposed for 96 hours; read-out: IC50, concentration eliciting 50% inhibition of cell proliferation. How it is done: (§1) Compounds 1-16 were screened for their in vitro cytotoxic activity utilizing a 3-(4,5-dimethyl-thiazol-2-yl)-2,5-diphenyltetrazolium bromide (MTT) assay against selected cancer human cell lines consisting of PC3 (prostate), HCT116 (colon), A375 (melanoma), H1299 (lung), MIAPaCa-2 (pancreas), HL60 (leukemia), MCF7 (breast), MDA-MB-231 (breast) (T. Mosmann, J. Immunol. Meth., 1983, 65, 55-63). The cells were cultured at 37° C. in RMPI1640 medium supplemented with 10% fetal bovine serum, 50 IU/mL penicillin, and 50 μg/mL streptomycin in a 5% CO2 incubator. All cells were sub-cultured 3 times/week by trypsinisation. Viable cells were seeded and allowed to adhere for 12 h before a test drug was added in 96-well plates at an initial density of 1.0×10^5 cells/mL. Tumour cell lines were separately exposed to various concentrations of the tested compounds followed by incubation at a temperature of 37° C. during 96 h inside a medium of fresh RMPI 1640. Cells were subsequently incubated at 37° C. using MTT at 0.5 mg/mL during 4 h. After removal of supernatant, formazan crystals were dissolved in isopropanol and the optical density was measured at 570 nm. CX-4945 was used as a positive control.

In experiment [2] the test system is HCT116 (colon). Description: In vitro cytotoxic activity (MTT) assay, HCT116. In kind it is cell-based. To be noted: Homo sapiens, HCT-116; HCT116 (colon) cells, exposed for 96 hours; read-out: IC50, concentration eliciting 50% inhibition of cell proliferation. How it is done:
as §1

The test system of experiment [3] is A375 (melanoma). Description: In vitro cytotoxic activity (MTT) assay, A375. In kind it is cell-based. To be noted: Homo sapiens, A-375; A375 (melanoma) cells, exposed for 96 hours; read-out: IC50, concentration eliciting 50% inhibition of cell proliferation. As to the method:
as §1

Experiment [4] relates to H1299 (lung). Description: In vitro cytotoxic activity (MTT) assay, H1299. In kind it is cell-based. The settings on record: Homo sapiens, NCI-H1299; H1299 (lung) cells, exposed for 96 hours; read-out: IC50, concentration eliciting 50% inhibition of cell proliferation. As to the method: as §1
Experiment [5] relates to MIAPaCa-2 (pancreas). Kind of experiment: In vitro cytotoxic activity (MTT) assay, MIAPaCa-2. In kind it is cell-based. To be noted: Homo sapiens, MIA PaCa-2; MIAPaCa-2 (pancreas) cells, exposed for 96 hours; read-out: IC50, concentration eliciting 50% inhibition of cell proliferation. As to the method:
as §1

For experiment [6], the system named is HL60 (leukemia). Description: In vitro cytotoxic activity (MTT) assay, HL60. The class given is cell-based. To be noted: Homo sapiens, HL-60; HL60 (leukemia) cells, exposed for 96 hours; read-out: IC50, concentration eliciting 50% inhibition of cell proliferation. How it is done:
as §1

The test system of experiment [7] is MCF7 (breast). Description: In vitro cytotoxic activity (MTT) assay, MCF7. The settings on record: Homo sapiens; MCF7 (breast) cells, exposed for 96 hours; read-out: IC50, concentration eliciting 50% inhibition of cell proliferation. In kind it is cell-based. How it is done: as §1
Experiment [8] deals with MDA-MB-231 (breast). Kind of experiment: In vitro cytotoxic activity (MTT) assay, MDA-MB-231. In kind it is cell-based. To be noted: Homo sapiens; MDA-MB-231 (breast) cells, exposed for 96 hours; read-out: IC50, concentration eliciting 50% inhibition of cell proliferation. As to the method: as §1
For experiment [9], the target named is T1, recombinant human CK2 (RRββ-holoenzyme) (Homo sapiens, UniProt P68400).
T1 construct: purchased Millipore
T1 sequence (P68400 whole entry): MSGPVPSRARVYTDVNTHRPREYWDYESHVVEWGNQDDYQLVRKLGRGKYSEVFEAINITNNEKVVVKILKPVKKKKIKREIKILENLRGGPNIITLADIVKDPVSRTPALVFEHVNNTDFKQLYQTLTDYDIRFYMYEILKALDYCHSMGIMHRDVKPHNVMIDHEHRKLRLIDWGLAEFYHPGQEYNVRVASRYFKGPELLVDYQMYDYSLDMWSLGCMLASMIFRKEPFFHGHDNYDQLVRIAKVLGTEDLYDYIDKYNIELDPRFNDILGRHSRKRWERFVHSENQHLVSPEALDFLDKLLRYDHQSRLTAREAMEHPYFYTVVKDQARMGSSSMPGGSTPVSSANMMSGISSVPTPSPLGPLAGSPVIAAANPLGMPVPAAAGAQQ
T1 sequence (P67870 whole entry partner): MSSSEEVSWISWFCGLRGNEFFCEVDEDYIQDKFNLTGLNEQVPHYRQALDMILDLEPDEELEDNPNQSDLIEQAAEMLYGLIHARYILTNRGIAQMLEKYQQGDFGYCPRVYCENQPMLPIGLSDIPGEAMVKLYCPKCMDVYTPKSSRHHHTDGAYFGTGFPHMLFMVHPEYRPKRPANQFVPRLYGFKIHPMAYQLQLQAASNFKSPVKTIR
Kind of experiment: CK2 kinase assay (33P-ATP, substrate peptide RRRDDDSDDD). The class given is biochemical. To be noted: final ATP concentration 15 μM, 10 min at 30° C.; read-out: protein kinase CK2 IC50. How it is done:
CK2 Kinase Assay was conducted using the protocol as described in Pierre F. et al; J. Med. Chem. 2011, 54, 635-654. The tested compounds in aqueous solution were added at a volume of 10 μL to a reaction mixture comprising 10 μL of assay dilution buffer (ADB; 20 mM MOPS, pH 7.2, 25 mM β-glycerol phosphate, 5 mM EGTA, 1 mM sodium orthovanadate, and 1 mM dithiothreitol), 10 μL of substrate peptide (RRRDDDSDDD, dissolved in ADB at a concentration of 1 mM), 10 μL of recombinant human CK2 (RRββ-holoenzyme, 25 ng dissolved in ADB; Millipore). Reactions were initiated by the addition of 10 μL of ATP solution (90% 75 mMMgCl2, 75 μM ATP (final ATP concentration: 15 μM) dissolved in ADB; 10% [γ-33P] ATP (stock 1 mCi/100 μL; 3000 Ci/mmol (Perkin-Elmer) and maintained for 10 min at 30° C. The reactions were quenched with 100 μL of 0.75% phosphoric acid and then transferred to and filtered through a phosphor cellulose filter plate (Millipore). After washing each well five times with 0.75% phosphoric acid, the plate was dried under vacuum for 5 min and, following the addition of 15 μL of scintillation fluid to each well, the residual radioactivity was measured using a Wallac […] counter. The IC50 values were derived from eight concentrations of test inhibitors.

In the case of `O=c1[nH]ccc2c1[nH]c1c3ccncc3c(Nc3cccc(Cl)c3)nc21` [Compound 1, 5-((3-chlorophenyl)amino)-9,11-dihydro-10H-pyrido[4′,3′:4,5]pyrrolo[3,2-c][2,7]naphthyridin-10-one], the IC50 came to 2.1 µM in experiment [1]; 1.9 µM in [2]; 3.3 µM in experiment [3]; 1 µM in [4]; 1.7 µM in experiment [5]; 3.4 µM in experiment [6]. In addition, the IC50 in experiment [7] came to 6.2 µM; in [8], 4.8 µM; in experiment [9], 0.038 µM.
